The values that follow are results of earlier work, collected in publication PMC4648373 (Cancer prevention research (Philadelphia, Pa.), 2015).

Like-named read-outs stand apart in the source and are kept apart here.

For data set [1] the following is noted: healthy human subjects.
The subject of a further data set is AR signaling. Particulars: cell culture models, same concentration range.
The conditions of data set [2]: rodents.

`CC(C)=CC(=O)O[C@H]1Cc2cc3ccc(=O)oc3cc2OC1(C)C` [D, Decursin]: the “conversion to DOH” value in data set [1] was “extensive conversion”; in data set [2] it was “rapidly and extensively converted to DOH”. The “anti-androgen (AR) signaling, cellular growth and survival activities” value (“anti-androgen (AR) signaling” for short) in the data set on AR signaling was “identical anti-androgen signaling and anti-proliferative activities”.
As to `C/C=C(/C)C(=O)O[C@H]1Cc2cc3ccc(=O)oc3cc2OC1(C)C` [DA, decursinol angelate], the “conversion to DOH” value in data set [1] was “extensive conversion”; in data set [2] it was “rapidly and extensively converted to DOH”. The “anti-androgen (AR) signaling” value with AR signaling is “identical anti-androgen signaling and anti-proliferative activities”.
For the compound `CC1(C)Oc2cc3oc(=O)ccc3cc2C[C@@H]1O` [DOH, decursinol], the “anti-androgen (AR) signaling” value in the data set with AR signaling was “much less inhibitory”.
